Measurements published in patent US9376442B2, “Methylpyrrolopyrimidinecarboxamides” (Takeda GmbH, priority 2009, dated 2016).

Target: T1, PDE5A1 (Homo sapiens, UniProt O76074)
T1 construct: from tissue; host or cells: human platelets from fresh donor blood (10,000 x g supernatant of sonicated lysate)
Assay: Inhibition of type 5 phosphodiesterase (PDE5) activity, modified SPA test with human platelet lysate
Type: biochemical
Details: 0.5 μM cGMP, read-out: PDE5A1 inhibitory values [measured as −log IC50 (mol/l)] (converted)
In short: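 Scintillation proximity assay with [3H]cGMP tracer at 0.5 μM total cGMP, stopped after 15 min with beads containing IBMX. PDE3 and PDE2 activities suppressed with motapizone (1 μM) and a PDE2 inhibitor (10 nM). Human platelet supernatant served as the enzyme, with compound preincubated 5 min at 37° C; IC50 values from concentration-effect curves.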

| IC50 [nM] | SMILES |
| --- | --- |
| < 1 | COc1cc(-c2ncnc3c(C(=O)N[C@H]4CC[C@H](NC(=O)[C@H](C)O)CC4)c(C)[nH]c23)c(OCC2CC2)cc1F [Example F68, 4-[2-(Cyclopropylmethoxy)-4-fluoro-5-methoxyphenyl]-N-(trans-4-{[(2S)-2-hydroxypropanoyl]amino}cyclohexyl)-6-methyl-5H-pyrrolo[3,2-d]pyrimidine-7-carboxamide] |
| < 1 | CCc1ccc(OCC2CC2)c(-c2ncnc3c(C(=O)NC4CCN(C(=O)CO)CC4)c(C)[nH]c23)c1 [Example F91] |
| < 1 | COc1cc(OCC2CC2)c(-c2ncnc3c(C(=O)NC4CCN(C(=O)CO)CC4)c(C)[nH]c23)cc1F [Example F83, 4-[2-(Cyclopropylmethoxy)-5-fluoro-4-methoxyphenyl]-N-(1-glycoloylpiperidin-4-yl)-6-methyl-5H-pyrrolo[3,2-d]pyrimidine-7-carboxamide] |
| < 1 | COc1cc(OCC2CC2)c(-c2ncnc3c(C(=O)N[C@H]4CC[C@@H](NC(=O)[C@H](C)O)CC4)c(C)[nH]c23)cc1F [Example F88, 4-[2-(Cyclopropylmethoxy)-5-fluoro-4-methoxyphenyl]-N-(cis-4-{[(2S)-2-hydroxypropanoyl]amino}cyclohexyl)-6-methyl-5H-pyrrolo[3,2-d]pyrimidine-7-carboxamide] |
| < 1 | CC(=O)c1ccc(OCC2CC2)c(-c2ncnc3c(C(=O)NC4CCN(C(=O)[C@H](C)O)CC4)c(C)[nH]c23)c1 [Example F103, 4-[5-Acetyl-2-(cyclopropylmethoxy)phenyl]-N-{1-[(2S)-2-hydroxypropanoyl]piperidin-4-yl}-6-methyl-5H-pyrrolo[3,2-d]pyrimidine-7-carboxamide] |
| < 1 | COc1cc(-c2ncnc3c(C(=O)N[C@@H]4CN(C(=O)[C@H](C)O)C[C@H]4O)c(C)[nH]c23)c(OCC2CC2)cc1F (relative stereo) [Example F114, 4-[2-(Cyclopropylmethoxy)-4-fluoro-5-methoxyphenyl]-N-{(3R*,4R*)-4-hydroxy-1-[(2S)-2-hydroxypropanoyl]pyrrolidin-3-yl}-6-methyl-5H-pyrrolo[3,2-d]pyrimidine-7-carboxamide] |
| < 1 | COc1cc(-c2ncnc3c(C(=O)N[C@@H]4CCN(C(=O)CO)C4)c(C)[nH]c23)c(OCC2CC2)cc1F [Example F111, 4-[2-(Cyclopropylmethoxy)-4-fluoro-5-methoxyphenyl]-N-[(3R)-1-glycoloylpyrrolidin-3-yl]-6-methyl-5H-pyrrolo[3,2-d]pyrimidine-7-carboxamide] |

The remaining lines, values behind:

| SMILES | IC50 [nM] |
| --- | --- |
| COc1ccc(-c2ncnc3c(C(=O)N[C@H]4CC[C@@H](NC(C)=O)CC4)c(C)[nH]c23)c(OCC2CC2)c1 [Example E59, N-(cis-4-acetamidocyclohexyl)-4-[2-(cyclopropylmethoxy)-4-methoxyphenyl]-6-methyl-5H-pyrrolo[3,2-d]pyrimidine-7-carboxamide] | < 1 |
| COCC(=O)N1C[C@@H](O)[C@H](NC(=O)c2c(C)[nH]c3c(-c4cc(F)c(OC)cc4OCC4CC4)ncnc23)C1 (relative stereo) [Example E191, 4-[2-(Cyclopropylmethoxy)-5-fluoro-4-methoxyphenyl]-N-[(3R*,4R*)-4-hydroxy-1-(methoxyacetyl)pyrrolidin-3-yl]-6-methyl-5H-pyrrolo[3,2-d]pyrimidine-7-carboxamide] | < 1 |
| CCOc1ccc(F)cc1-c1ncnc2c(C(=O)NC3CCN(C(C)=O)CC3)c(C)[nH]c12 [Example E52, N-(1-acetylpiperidin-4-yl)-4-(2-ethoxy-5-fluorophenyl)-6-methyl-5H-pyrrolo[3,2-d]pyrimidine-7-carboxamide] | 1 to 10 |
| COc1cc(OCC2CC2)c(-c2ncnc3c(C(=O)N[C@H]4CC[C@H](NC(C)=O)CC4)c(C)[nH]c23)cc1F [Example E135, N-(trans-4-Acetamidocyclohexyl)-4-[2-(cyclopropylmethoxy)-5-fluoro-4-methoxyphenyl]-6-methyl-5H-pyrrolo[3,2-d]pyrimidine-7-carboxamide] | < 1 |
| COCC(=O)N1CCC(NC(=O)c2c(C)[nH]c3c(-c4cc(F)c(OC)cc4OCC4CC4)ncnc23)CC1 [Example E133, 4-[2-(Cyclopropylmethoxy)-5-fluoro-4-methoxyphenyl]-N-[1-(methoxyacetyl)piperidin-4-yl]-6-methyl-5H-pyrrolo[3,2-d]pyrimidine-7-carboxamide] | < 1 |
| CC(=O)N1CC[C@H](NC(=O)c2c(C)[nH]c3c(-c4ccc(F)cc4OCC4CC4)ncnc23)[C@@H](O)C1 (relative stereo) [Example E34, N-[(3S*,4S*)-1-acetyl-3-hydroxypiperidin-4-yl]-4-[2-(cyclopropylmethoxy)-4-fluorophenyl]-6-methyl-5H-pyrrolo[3,2-d]pyrimidine-7-carboxamide] | < 1 |
| CCOC(=O)N1CCC(NC(=O)c2c(C)[nH]c3c(-c4cc(F)c(OC)cc4OCC4CC4)ncnc23)CC1 [Example E134, Ethyl 4-[({4-[2-(cyclopropylmethoxy)-5-fluoro-4-methoxyphenyl]-6-methyl-5H-pyrrolo[3,2-d]pyrimidin-7-yl}carbonyl)amino]piperidine-1-carboxylate] | < 1 |
| CCC(=O)N1CCC(NC(=O)c2c(C)[nH]c3c(-c4c(OCC5CC5)ccc5c4OCO5)ncnc23)CC1 [Example E2, 4-[5-(Cyclopropylmethoxy)-1,3-benzodioxol-4-yl]-6-methyl-N-(1-propionylpiperidin-4-yl)-5H-pyrrolo[3,2-d]pyrimidine-7-carboxamide] | < 1 |
| COc1cc(OCC2CC2)c(-c2ncnc3c(C(=O)N[C@@H]4CN(C(C)=O)C[C@H]4O)c(C)[nH]c23)cc1F (relative stereo) [Example E189, N-[(3R*,4R*)-1-Acetyl-4-hydroxypyrrolidin-3-yl]-4-[2-(cyclopropylmethoxy)-5-fluoro-4-methoxyphenyl]-6-methyl-5H-pyrrolo[3,2-d]pyrimidine-7-carboxamide] | < 1 |
| CC(=O)N1CC[C@@H](NC(=O)c2c(C)[nH]c3c(-c4c(OCC5CC5)ccc5c4OCO5)ncnc23)C1 [Example E13, N-[(3R)-1-acetylpyrrolidin-3-yl]-4-[5-(cyclopropylmethoxy)-1,3-benzodioxol-4-yl]-6-methyl-5H-pyrrolo[3,2-d]pyrimidine-7-carboxamide] | < 1 |
| COc1cc(-c2ncnc3c(C(=O)N[C@H]4CN(C(C)=O)CC[C@@H]4O)c(C)[nH]c23)c(OCC2CC2)cc1F (relative stereo) [Example E116, N-[(3S*,4S*)-1-Acetyl-4-hydroxypiperidin-3-yl]-4-[2-(cyclopropylmethoxy)-4-fluoro-5-methoxyphenyl]-6-methyl-5H-pyrrolo[3,2-d]pyrimidine-7-carboxamide] | < 1 |
| COCC(=O)N1C[C@@H](O)[C@H](NC(=O)c2c(C)[nH]c3c(-c4c(OCC5CC5)ccc5c4OCO5)ncnc23)C1 (relative stereo) [Example E18, 4-[5-(Cyclopropylmethoxy)-1,3-benzodioxol-4-yl]-N-[(3R*,4R*)-4-hydroxy-1-(methoxyacetyl)pyrrolidin-3-yl]-6-methyl-5H-pyrrolo[3,2-d]pyrimidine-7-carboxamide] | < 1 |
| COc1ccc(-c2ncnc3c(C(=O)N[C@@H]4CN(C(C)=O)C[C@H]4O)c(C)[nH]c23)c(OCC2CC2)c1 (relative stereo) [Example E63, N-[(3R*,4R*)-1-acetyl-4-hydroxypyrrolidin-3-yl]-4-[2-(cyclopropylmethoxy)-4-methoxyphenyl]-6-methyl-5H-pyrrolo[3,2-d]pyrimidine-7-carboxamide] | < 1 |
| CCC(=O)N1CCC(NC(=O)c2c(C)[nH]c3c(-c4ccc(OC)cc4OCC4CC4)ncnc23)CC1 [Example E56, 4-[2-(Cyclopropylmethoxy)-4-methoxyphenyl]-6-methyl-N-(1-propionylpiperidin-4-yl)-5H-pyrrolo[3,2-d]pyrimidine-7-carboxamide] | < 1 |
| COc1ccc(OCC2CC2)c(-c2ncnc3c(C(=O)N[C@@H]4CCN(C(C)=O)C4)c(C)[nH]c23)c1 [Example E75, N-[(3R)-1-acetylpyrrolidin-3-yl]-4-[2-(cyclopropylmethoxy)-5-methoxyphenyl]-6-methyl-5H-pyrrolo[3,2-d]pyrimidine-7-carboxamide] | < 1 |
| COCC(=O)N1C[C@@H](O)[C@H](NC(=O)c2c(C)[nH]c3c(-c4ccc(OC)cc4OCC4CC4)ncnc23)C1 (relative stereo) [Example E65, 4-[2-(Cyclopropylmethoxy)-4-methoxyphenyl]-N-[(3R*,4R*)-4-hydroxy-1-(methoxyacetyl)pyrrolidin-3-yl]-6-methyl-5H-pyrrolo[3,2-d]pyrimidine-7-carboxamide] | < 1 |
| COCC(=O)N[C@H]1CC[C@@H](NC(=O)c2c(C)[nH]c3c(-c4cc(F)c(OC)cc4OCC4CC4)ncnc23)CC1 [Example E140, 4-[2-(Cyclopropylmethoxy)-5-fluoro-4-methoxyphenyl]-N-{cis-4-[(methoxyacetyl)amino]cyclohexyl}-6-methyl-5H-pyrrolo[3,2-d]pyrimidine-7-carboxamide] | < 1 |
| CCC(=O)N1CC[C@@H](NC(=O)c2c(C)[nH]c3c(-c4cc(OC)c(F)cc4OCC4CC4)ncnc23)[C@H](O)C1 (relative stereo) [Example E114, 4-[2-(Cyclopropylmethoxy)-4-fluoro-5-methoxyphenyl]-N-[(3R*,4R*)-3-hydroxy-1-propionylpiperidin-4-yl]-6-methyl-5H-pyrrolo[3,2-d]pyrimidine-7-carboxamide] | < 1 |
| COCC(=O)N1CC[C@@H](NC(=O)c2c(C)[nH]c3c(-c4cc(OC)c(F)cc4OCC4CC4)ncnc23)C1 [Example E181, 4-[2-(Cyclopropylmethoxy)-4-fluoro-5-methoxyphenyl]-N-[(3R)-1-(methoxyacetyl)pyrrolidin-3-yl]-6-methyl-5H-pyrrolo[3,2-d]pyrimidine-7-carboxamide] | < 1 |
